target: T1, human TRPA1 (Homo sapiens, UniProt O75762); experiment: TRPA1 FLIPR Tetra calcium influx assay in CHO cells (block of cinnamaldehyde-induced calcium influx); type: cell-based; conditions: Table 2; CHO cells expressing TRPA1; agonist cinnamaldehyde 75 uM; 20 min compound incubation; Hill coefficient fixed to 1.5; read-out: hTRPA1 CHO Ca2+ AUC EVO (IC50)
T1 construct: expressed in transfected cells; host or cells: CHO cells
In short: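 CHO cells expressing TRPA1 were loaded with calcium dye in HBSS/20 mM HEPES, pH 7.4, 0.02% BSA, then given compound for 20 min at room temperature before ~EC80 cinnamaldehyde (75 µM human, 45 µM rat). Block of calcium influx was read on FLIPR Tetra; IC50 fitted with Hill coefficient fixed at 1.5.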

T1 sequence (O75762 whole entry): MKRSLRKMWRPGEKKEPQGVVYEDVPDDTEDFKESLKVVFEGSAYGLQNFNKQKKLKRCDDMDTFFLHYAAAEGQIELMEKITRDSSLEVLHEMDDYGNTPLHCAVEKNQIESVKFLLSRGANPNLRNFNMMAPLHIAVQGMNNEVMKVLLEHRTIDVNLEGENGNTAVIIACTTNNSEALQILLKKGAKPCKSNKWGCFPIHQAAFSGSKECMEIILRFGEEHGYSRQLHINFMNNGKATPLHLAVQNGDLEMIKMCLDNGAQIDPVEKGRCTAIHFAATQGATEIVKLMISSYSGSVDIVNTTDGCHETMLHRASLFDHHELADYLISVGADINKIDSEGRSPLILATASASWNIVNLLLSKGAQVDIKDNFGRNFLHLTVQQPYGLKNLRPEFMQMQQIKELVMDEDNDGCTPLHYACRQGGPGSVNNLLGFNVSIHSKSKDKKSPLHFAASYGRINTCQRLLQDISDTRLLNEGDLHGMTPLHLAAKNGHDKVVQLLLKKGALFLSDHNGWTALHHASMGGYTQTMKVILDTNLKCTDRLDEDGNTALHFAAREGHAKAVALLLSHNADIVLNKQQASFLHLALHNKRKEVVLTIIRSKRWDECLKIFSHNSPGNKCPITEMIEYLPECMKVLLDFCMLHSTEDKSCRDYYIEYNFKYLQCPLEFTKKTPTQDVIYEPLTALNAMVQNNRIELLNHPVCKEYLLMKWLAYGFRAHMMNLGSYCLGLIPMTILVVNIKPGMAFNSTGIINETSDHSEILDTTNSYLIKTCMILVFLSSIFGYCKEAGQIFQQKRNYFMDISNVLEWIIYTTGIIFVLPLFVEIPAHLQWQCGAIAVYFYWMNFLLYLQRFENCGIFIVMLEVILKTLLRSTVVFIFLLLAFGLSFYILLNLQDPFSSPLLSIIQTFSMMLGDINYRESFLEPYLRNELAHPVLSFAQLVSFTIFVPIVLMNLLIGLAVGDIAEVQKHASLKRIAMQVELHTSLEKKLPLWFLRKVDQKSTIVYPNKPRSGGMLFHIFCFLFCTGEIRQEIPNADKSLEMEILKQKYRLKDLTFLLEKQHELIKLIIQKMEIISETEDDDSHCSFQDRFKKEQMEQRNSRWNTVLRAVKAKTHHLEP

Row | IC50 | SMILES
1 | 5.38 nM | C[C@H]1[C@H](F)C[C@@H](C(=O)NCc2cc(-c3cnc(C(F)(F)F)s3)ncc2F)N1S(=O)(=O)c1ccc(F)cc1 [Example 93, (2S,4R,5S)-4-fluoro-1-(4-fluorophenyl)sulfonyl-N-[[5-fluoro-2-[2-(trifluoromethyl)thiazol-5-yl]-4-pyridyl]methyl]-5-methyl-pyrrolidine-2-carboxamide]
2 | 5.52 nM | C[C@H]1[C@H](F)C[C@@H](C(=O)NCc2cc(C3CCN(CC(F)(F)C(F)(F)F)CC3)ncc2F)N1S(=O)(=O)c1ccc(F)cc1 [Example 94, (2S,4R,5S)-4-fluoro-N-[[5-fluoro-2-[1-(2,2,3,3,3-pentafluoropropyl)-4-piperidyl]-4-pyridyl]methyl]-1-(4-fluorophenyl)sulfonyl-5-methyl-pyrrolidine-2-carboxamide]
3 | 1.49 nM | C[C@H]1[C@H](F)C[C@@H](C(=O)NCc2cc(-c3cnc(C(F)(F)F)nc3)ncc2F)N1S(=O)(=O)c1cc2ccccc2o1 [Example 95, (2S,4R,5S)-1-(benzofuran-2-ylsulfonyl)-4-fluoro-N-[[5-fluoro-2-[2-(trifluoromethyl)pyrimidin-5-yl]-4-pyridyl]methyl]-5-methyl-pyrrolidine-2-carboxamide]
4 | 22.5 nM | C[C@H]1[C@H](F)C[C@@H](C(=O)NCc2cc(-c3ncc(C(F)(F)F)s3)c(F)cn2)N1S(=O)(=O)c1ccc(F)cc1 [Example 96, (2S,4R,5S)-4-fluoro-1-(4-fluorophenyl)sulfonyl-N-[[5-fluoro-4-[5-(trifluoromethyl)thiazol-2-yl]-2-pyridyl]methyl]-5-methyl-pyrrolidine-2-carboxamide]
5 | 6.06 nM | C[C@H]1[C@H](F)C[C@@H](C(=O)NCc2cc(-c3cnc(C(F)(F)F)nc3)cc(F)c2F)N1S(=O)(=O)c1ccc(F)cc1 [Example 97, (2S,4R,5S)-N-[[2-1,3-difluoro-5-[2-(trifluoromethyl)pyrimidin-5-yl]phenyl]methyl]-4-fluoro-1-(4-fluorophenyl)sulfonyl-5-methyl-pyrrolidine-2-carboxamide]
6 | 5.61 nM | C[C@H]1[C@H](F)C[C@@H](C(=O)NCc2cc(-c3cnc(C(F)(F)F)nc3)ncc2F)N1S(=O)(=O)c1cc2ccccc2s1 [Example 98, (2S,4R,5S)-1-(benzothiophen-2-ylsulfonyl)-4-fluoro-N-[[5-fluoro-2-[2-(trifluoromethyl)pyrimidin-5-yl]-4-pyridyl]methyl]-5-methyl-pyrrolidine-2-carboxamide]
7 | 9.67 nM | C[C@H]1[C@H](F)C[C@@H](C(=O)NCc2cc(-c3cnc(C(F)(F)F)nc3)ncc2F)N1S(=O)(=O)c1cc2cc(F)ccc2s1 [Example 99, (2S,4R,5S)-4-fluoro-1-(5-fluorobenzothiophen-2-yl)sulfonyl-N-[[5-fluoro-2-[2-(trifluoromethyl)pyrimidin-5-yl]-4-pyridyl]methyl]-5-methyl-pyrrolidine-2-carboxamide]
8 | 12.7 nM | Cc1cnc(-c2cnc(C(F)(F)F)nc2)cc1CNC(=O)[C@@H]1C[C@@H](F)[C@H](C)N1S(=O)(=O)c1ccc(F)cc1 [Example 100, (2S,4R,5S)-4-fluoro-1-((4-fluorophenyl)sulfonyl)-5-methyl-N-((5-methyl-2-(2-(trifluoromethyl)pyrimidin-5-yl)pyridin-4-yl)methyl)pyrrolidine-2-carboxamide]
9 | 0.545 nM | C[C@H]1[C@H](F)C[C@@H](C(=O)NCc2cc(-c3cnc(C(F)(F)F)nc3)ncc2F)N1S(=O)(=O)c1ccc(Cl)s1 [Example 101, (2S,4R,5S)-1-[(5-chloro-2-thienyl)sulfonyl]-4-fluoro-N-[[5-fluoro-2-[2-(trifluoromethyl)pyrimidin-5-yl]-4-pyridyl]methyl]-5-methyl-pyrrolidine-2-carboxamide]
10 | 4.07 nM | C[C@H]1[C@H](F)C[C@@H](C(=O)NCc2cc(-c3cnc(C(F)(F)F)nc3)ncc2C(F)F)N1S(=O)(=O)c1ccc(F)cc1 [Example 102, (2S,4R,5S)—N-((5-(difluoromethyl)-2-(2-(trifluoromethyl)pyrimidin-5-yl)pyridin-4-yl)methyl)-4-fluoro-1-(4-fluorophenylsulfonyl)-5-methylpyrrolidine-2-carboxamide]
11 | 0.777 nM | C[C@H]1[C@H](F)C[C@@H](C(=O)NCc2cc(-c3cnc(C(F)(F)F)nc3)ncc2C(F)(F)F)N1S(=O)(=O)c1ccc(F)cc1 [Example 103, (2S,4R,5S)-4-fluoro-1-(4-fluorophenylsulfonyl)-5-methyl-N-((5-(trifluoromethyl)-2-(2-(trifluoromethyl)pyrimidin-5-yl)pyridin-4-yl)methyl)pyrrolidine-2-carboxamide]
12 | 0.682 nM | C[C@H]1[C@H](F)C[C@@H](C(=O)NCc2cc(-c3cnc(C(F)(F)F)nc3)nc(C3CC3)c2C#N)N1S(=O)(=O)c1ccc(F)cc1 [Example 104, (2S,4R,5S)—N-((3-cyano-2-cyclopropyl-6-(2-(trifluoromethyl)pyrimidin-5-yl)pyridin-4-yl)methyl)-4-fluoro-1-(4-fluorophenylsulfonyl)-5-methylpyrrolidine-2-carboxamide]
13 | 0.875 nM | C[C@H]1[C@H](F)C[C@@H](C(=O)NCc2cc(-c3cnc(C(F)(F)F)nc3)ncc2OC(F)(F)F)N1S(=O)(=O)c1ccc(F)cc1 [Example 105, (2S,4R,5S)-4-fluoro-1-(4-fluorophenyl)sulfonyl-5-methyl-N-[[5-(trifluoromethoxy)-2-[2-(trifluoromethyl)pyrimidin-5-yl]-4-pyridyl]methyl]pyrrolidine-2-carboxamide]
14 | 2.2 nM | C[C@H]1[C@H](F)C[C@@H](C(=O)NCc2cc(-c3cnc(C(F)(F)F)nc3)c(OC(F)(F)F)cn2)N1S(=O)(=O)c1ccc(F)cc1 [Example 106, (2S,4R,5S)-4-fluoro-1-(4-fluorophenyl)sulfonyl-5-methyl-N-[[5-(trifluoromethoxy)-4-[2-(trifluoromethyl)pyrimidin-5-yl]-2-pyridyl]methyl]pyrrolidine-2-carboxamide]
15 | 9.74 nM | C[C@H]1[C@H](F)C[C@@H](C(=O)NCc2cc(-c3cnc(C(F)(F)F)nc3)c(C(F)(F)F)cn2)N1S(=O)(=O)c1ccc(F)cc1 [Example 107, (2S,4R,5S)-4-fluoro-1-(4-fluorophenyl)sulfonyl-5-methyl-N-[[5-(trifluoromethyl)-4-[2-(trifluoromethyl)pyrimidin-5-yl]-2-pyridyl]methyl]pyrrolidine-2-carboxamide]
16 | 2 nM | C[C@H]1[C@H](F)C[C@@H](C(=O)NCc2cc(-c3cnc(C(F)(F)F)nc3)nc(C(F)(F)F)n2)N1S(=O)(=O)c1ccc(F)cc1 [Example 108, (2S,4R,5S)-4-fluoro-1-(4-fluorophenyl)sulfonyl-5-methyl-N-[[2-(trifluoromethyl)-6-[2-(trifluoromethyl)pyrimidin-5-yl]pyrimidin-4-yl]methyl]pyrrolidine-2-carboxamide]
17 | 16.9 nM | C[C@H]1[C@H](F)C[C@@H](C(=O)NCc2cnc(C(F)(F)F)c(-c3cnc(C(F)(F)F)nc3)c2)N1S(=O)(=O)c1ccc(F)cc1 [Example 109, (2S,4R,5S)-4-fluoro-1-(4-fluorophenyl)sulfonyl-5-methyl-N-[[6-(trifluoromethyl)-5-[2-(trifluoromethyl)pyrimidin-5-yl]-3-pyridyl]methyl]pyrrolidine-2-carboxamide]
18 | 10.6 nM | C[C@H]1[C@H](F)C[C@@H](C(=O)NCc2cc(-c3cnc(C(F)(F)F)nc3)cnc2C2CC2)N1S(=O)(=O)c1ccc(F)cc1 [Example 110, (2S,4R,5S)-N-[[2-cyclopropyl-5-[2-(trifluoromethyl)pyrimidin-5-yl]-3-pyridyl]methyl]-4-fluoro-1-(4-fluorophenyl)sulfonyl-5-methyl-pyrrolidine-2-carboxamide]
19 | 1.75 nM | C[C@H]1[C@H](F)C[C@@H](C(=O)NCc2cc(-c3cnc(C(F)(F)F)nc3)ccc2C(F)(F)F)N1S(=O)(=O)c1ccc(F)cc1 [Example 111, (2S,4R,5S)-4-fluoro-1-(4-fluorophenyl)sulfonyl-5-methyl-N-[[2-(trifluoromethyl)-5-[2-(trifluoromethyl)pyrimidin-5-yl]phenyl]methyl]pyrrolidine-2-carboxamide]
20 | 1.94 nM | C[C@H]1[C@H](F)C[C@@H](C(=O)NCc2cc(-c3cnc(C(F)(F)F)cn3)ncc2C(F)(F)F)N1S(=O)(=O)c1ccc(F)cc1 [Example 112, (2S,4R,5 S)-4-fluoro-1-(4-fluorophenylsulfonyl)-5-methyl-N-((5-(trifluoromethyl)-2-(5-(trifluoromethyl)pyrazin-2-yl)pyridin-4-yl)methyl)pyrrolidine-2-carboxamide]
21 | 4.47 nM | C[C@H]1[C@H](F)C[C@@H](C(=O)NCc2cc(-c3cnc(C(F)(F)F)nc3)nc(C(F)(F)F)c2)N1S(=O)(=O)c1ccc(F)cc1 [Example 113, (2S,4R,5S)-4-fluoro-1-(4-fluorophenyl)sulfonyl-5-methyl-N-[[2-(trifluoromethyl)-6-[2-(trifluoromethyl)pyrimidin-5-yl]-4-pyridyl]methyl]pyrrolidine-2-carboxamide]
22 | 3.57 nM | C[C@H]1[C@H](F)C[C@@H](C(=O)NCc2cc(-c3ccc(OC(F)F)nc3)ncc2C(F)(F)F)N1S(=O)(=O)c1ccc(F)cc1 [Example 114, (2S,4R,5S)—N-([2-[6-(difluoromethoxy)pyridin-3-yl]-5-(trifluoromethyl)pyridin-4-yl]methyl)-4-fluoro-1-[(4-fluorobenzene)sulfonyl]-5-methylpyrrolidine-2-carboxamide]
23 | 1.34 nM | C[C@H]1[C@H](F)C[C@@H](C(=O)NCc2cc(-c3ccc(C(F)(F)F)nc3)ncc2C(F)(F)F)N1S(=O)(=O)c1ccc(F)cc1 [Example 115, (2S,4R,5S)-4-fluoro-1-(4-fluorophenyl)sulfonyl-5-methyl-N-[[5-(trifluoromethyl)-2-[6-(trifluoromethyl)-3-pyridyl]-4-pyridyl]methyl]pyrrolidine-2-carboxamide]

Source: patent US10179782B2, “Substituted sulfonamide compounds” (Genentech, Inc., priority 2016, dated 2019)
